Experiment in all cases: NCI-60 cell line screen, 48 h
Assay [1] relates to HOP-62 NSCLC.
In assay [2] the test system is SF-268 CNS.
Assay [3] has as its system OVCAR-8 ovarian.
In assay [4] the test system is NCI-H460 lung.
Assay [5] has as its system K-562 leukemia.
Assay [6] deals with IGROV1 ovarian.
Assay [7] concerns COLO 205 colon.
The test system of assay [8] is SK-MEL-28 melanoma.
Assay [9] concerns LOX IMVI melanoma.
For assay [10], the system named is HL-60(TB) leukemia.

Values joined by “and” are separate entries in the source; they are usually repeats but may differ in a detail not shown here. Equal values may be shown once.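 Exposure lasted 48 hours, with cells grown in 96-well plates and compounds tested at five concentrations. GI50: concentration for 50% inhibition of growth. TGI marks complete inhibition of growth.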

As for `COc1cc(/C=C2\CCCCC3=C2N=C2SC(C)=CN2C3c2cc(OC)c(OC)c(OC)c2)cc(OC)c1OC` (centres undefined), the GI50 in assay [1] is 4.7 µM; in assay [2], 36.7 µM; in assay [3], 11.9 µM; in assay [4], 96.1 µM; in assay [5], 0.36 µM; in assay [6], 63.5 µM. The GI50 in assay [7] was 41.6 µM; in [8] it was 89.1 µM; in assay [9] it was above 100 µM; in assay [10], 19.5 µM. For the same compound, the TGI in assay [1], in assay [2], in assay [3], in [4], in assay [5] and in assay [6] was above 100 µM each time. Moreover, the TGI in assay [7], in assay [8], in assay [9] and in assay [10] was above 100 µM in each case.

For `CC12c3ccccc3C(OC=O)(c3ccccc31)C1(C)c3ccccc3C2(OC=O)c2ccccc21`, the TGI in assay [1], in assay [2], in assay [3], in assay [4], in assay [5] and in [6] was above 100 µM throughout. Moreover, the TGI in assay [7], in assay [8], in assay [9] and in assay [10] was above 100 µM each time.

As to `COC(=O)C1=CN(CC2=CC(=O)C(C)=CC2=O)C=C(C(=O)OC)C1c1ccccc1OC`, the GI50 was 23.5 µM in assay [1]; 18.7 µM in [2]; 17.6 µM in [3]; 33.7 µM in [4]; 0.495 µM in assay [5]; 22.3 µM in [6]. For the same compound, the GI50 is 18.9 µM in assay [7], 28 µM in assay [8], 21.4 µM in assay [9] and 4.74 µM in assay [10]. Moreover, the TGI in [1] is above 51 µM; in assay [2] it was 58.6 µM; in [3], 38.9 µM; in [4] it was above 87.7 µM; in assay [5], 14.9 µM; in assay [6], 57.3 µM. In addition, the TGI in [7] was 38.2 µM; in assay [8] it was above 57.5 µM; in [9] it was 42.9 µM; in [10] it was 18.5 µM.

Take `CNc1nc(N)nc(Nc2ccc(I)cc2)c1N=O`: the TGI in assay [1], in assay [2], in assay [3], in [4], in assay [5] and in assay [6] was above 100 µM in each case. For the same compound, the TGI in [7], in assay [8], in assay [9] and in [10] was above 100 µM each time.

Turning to `NC(N)=Nc1nc2ccccc2o1`, the GI50 in assay [1] was above 100 µM; in assay [2], above 100 µM; in assay [3], 49.2 µM; in assay [4], above 100 µM; in [5], above 100 µM; in assay [6] it was above 100 µM. In addition, the GI50 in [7], in [8], in assay [9] and in assay [10] was above 100 µM throughout. For the same compound, the TGI in assay [1], in assay [2], in [3], in assay [4], in [5] and in assay [6] was above 100 µM in each case. Moreover, the TGI in assay [7], in [8], in assay [9] and in assay [10] was above 100 µM in each case.

As for `CC(C)=CCC1=C(O)c2ccccc2C(=O)C1=O`, the TGI in assay [1], in assay [2], in assay [3], in assay [4], in assay [5] and in assay [6] was above 100 µM in each case. For the same compound, the TGI in [7] is 37.5 µM and > 100 µM; in assay [8] it was above 100 µM; in assay [9], above 100 µM; in assay [10], above 100 µM. The GI50 in assay [2] is > 100 µM and 11.8 µM; in [3], > 100 µM and 26.7 µM and 20.8 µM; in assay [6], > 100 µM and 46.2 µM and 14.8 µM; in [7], 18.4 µM and 52.3 µM and 28.8 µM; in assay [8], > 100 µM and 23 µM.

For the compound `CCN(Cc1c(F)cccc1OC)c1ccc(CO)c(Cl)c1`, the GI50 in assay [1] is 2.69 µM; in [2] it was 23.2 µM; in assay [3], 12 µM; in assay [4], 0.201 µM; in assay [5], 0.623 µM; in assay [6], below 0.036 µM. Moreover, the GI50 in assay [7] is 0.684 µM; in assay [8], 14.7 µM; in [9] it was 16.9 µM; in assay [10], 13.2 µM. For the same compound, the TGI in [1] was 25.5 µM; in assay [2], above 63.5 µM; in assay [3], 50.2 µM; in assay [4], 11.7 µM; in [5], 15.7 µM; in assay [7], 7.43 µM. In addition, the TGI is 34.3 µM in [8], 33.1 µM in assay [9] and 43.3 µM in assay [10].

With `NNc1ncnc2nc[nH]c12`, the GI50 in assay [1] was 2.25 µM; in assay [2], 8.24 µM; in assay [3] it was 5.09 µM; in assay [4], 5.58 µM; in assay [5], 3.4 µM; in [6] it was 3.56 µM. The GI50 in [7] is 2.56 µM; in assay [8], 34.6 µM; in assay [9], 2.89 µM; in [10], 3.53 µM. For the same compound, the TGI in [1] is 10.5 µM; in assay [2], above 100 µM; in assay [3], above 100 µM; in assay [4], 51.6 µM; in assay [5], above 100 µM; in assay [6] it was above 55.1 µM. The TGI was 18.7 µM in assay [7], above 100 µM in assay [8], above 100 µM in assay [9] and 21.5 µM in assay [10].

For `O=[N+]([O-])c1ccccc1N=Nc1c(O)[nH]c2c(Cl)cc(Cl)cc12`, the TGI in assay [1] was above 23.1 µM; in [2], above 100 µM; in assay [3], above 100 µM; in assay [4], above 100 µM; in assay [5] it was above 100 µM; in assay [6] it was above 100 µM. The TGI is above 100 µM in assay [7], above 100 µM in [8], above 100 µM in assay [9] and above 93 µM in assay [10].

For the origin of these results see PubChem BioAssay (NCI).
